The text below walks through data of patent US11702418B2, “SOS1 inhibitors” (priority 2019, dated 2023).

The target in test [1] is recombinant human SOS1 polypeptide (amino acids 560-1049) (Homo sapiens (Human), UniProt Q07889). Nature of the test: biochemical. It is filed as binding.
The test system of a further test is pERK in MKN1 cells. Put plainly: cells. It is filed as cell-based. Particulars: Homo sapiens.
[2] abbreviates: HTRF displacement, Cy5 labelled tracer, Morrison equation for competitive binding, read-out: Ki, Inhibition of Labeled Tracer Binding to SOS1.
[3] abbreviates: MKN-1, pERK inhibition, In-Cell Western, MKN1 or H358 cells (Table 24 does not say which), 0.5-1 hour incubation, read-out: IC50.
The mark [4] stands for this setting: read-out: Ki, Inhibition of Labeled Tracer Binding to SOS1.

Where a name gives a salt, the structure may show the parent alone. Read-outs that look alike come from different tables or passages of the source.

Chain of recombinant human SOS1 polypeptide (amino acids 560-1049) (Q07889 560-1049): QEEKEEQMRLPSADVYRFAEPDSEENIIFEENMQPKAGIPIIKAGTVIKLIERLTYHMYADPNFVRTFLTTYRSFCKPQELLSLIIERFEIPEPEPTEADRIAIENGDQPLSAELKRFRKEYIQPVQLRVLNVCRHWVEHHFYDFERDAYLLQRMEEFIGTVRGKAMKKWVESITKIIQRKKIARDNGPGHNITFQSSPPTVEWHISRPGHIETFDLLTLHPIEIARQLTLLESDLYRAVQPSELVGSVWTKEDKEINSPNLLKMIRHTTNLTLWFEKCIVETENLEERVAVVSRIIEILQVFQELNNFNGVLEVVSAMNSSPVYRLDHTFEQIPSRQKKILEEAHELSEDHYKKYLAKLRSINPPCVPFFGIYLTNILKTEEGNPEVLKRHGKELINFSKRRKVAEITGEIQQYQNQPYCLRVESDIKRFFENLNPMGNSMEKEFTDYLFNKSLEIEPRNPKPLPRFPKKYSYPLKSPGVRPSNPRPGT

On to `Cc1c(C#N)cccc1[C@@H](C)Nc1nnc(C)c2cc(F)c(N3CCNCC3)cc12` [Example 18-4, (R)-3-(1-((6-fluoro-4-methyl-7-(piperazin-1-yl)phthalazin-1-yl)amino)ethyl)-2-methylbenzonitrile], for which the Ki in test [1] (setting [2]) turned out to be 0.00164 µM. Moreover, in the test on pERK in MKN1 cells (setting [3]), the IC50 was determined as 0.041 µM.
On the same counts, the results for `COc1c(C#N)cccc1[C@@H](C)Nc1nnc(C)c2cnc(N3CCN4CCOCC4C3)cc12` (stereo in doubt) [Example 17-2, 3-((R)-1-((7-((R)-hexahydropyrazino[2,1-c][1,4]oxazin-8(1H)-yl)-4-methylpyrido[3,4-d]pyridazin-1-yl)amino)ethyl)-2-methoxybenzonitrile] are 0.0125 µM and 0.05 µM.
On the same counts, the results for `Cc1c(C#N)cccc1[C@@H](C)Nc1nnc(C)c2ccc(N3CCC(F)(F)CC3)cc12` [Example 10-67, (R)-3-(1-((7-(4,4-difluoropiperidin-1-yl)-4-methylphthalazin-1-yl)amino)ethyl)-2-methylbenzonitrile] are 0.00257 µM and 0.044 µM.
For the compound `Cc1c([C@@H](C)Nc2nnc(C)c3ccc(N4CCOCC4)cc23)cc(N)cc1C(F)(F)F` [Example 15-2, (R)—N-(1-(5-amino-2-methyl-3-(trifluoromethyl)phenyl)ethyl)-4-methyl-7-morpholinophthalazin-1-amine], the Ki in test [1] turned out to be 0.00042 µM. This compound registered an IC50 in the test on pERK in MKN1 cells (MKN-1, pERK inhibition, In-Cell Western, MKN1 or H358 cells (Table 24 does not say which), 0.5-1 hour incubation) of 0.008 µM.
`Cc1c([C@@H](C)Nc2nncc3ccc(N4CCC5CCN(C)C5C4)cc23)cccc1C(F)(F)F` (stereo partly drawn) [Example 1-33, N-((R)-1-(2-methyl-3-(trifluoromethyl)phenyl)ethyl)-7-(1-methyloctahydro-6H-pyrrolo[2,3-c]pyridin-6-yl)phthalazin-1-amine]: in test [1] (setting [2]), the Ki came to 0.0007 µM. Further, in the test with pERK in MKN1 cells (setting [3]), the IC50 was 0.109 µM.
`Cc1cccc([C@@H](C)Nc2nnc(C)c3cnc(N4CCN5CCOC[C@@H]5C4)cc23)c1F` [Example 12-131]: the Ki in test [1] (setting [2]) came out at 0.0036 µM. The IC50 in the test on pERK in MKN1 cells (setting [3]) worked out at 0.028 µM.
On to `Cc1c([C@@H](C)Nc2nnc(C)c3ccc(N4CCC(N5CCC(F)(F)C5)CC4)cc23)cccc1C(F)(F)F` [Example 10-49, (R)-7-(4-(3,3-difluoropyrrolidin-1-yl)piperidin-1-yl)-4-methyl-N-(1-(2-methyl-3-(trifluoromethyl)phenyl)ethyl)phthalazin-1-amine Formate salt], for which, in test [1] (setting [4]), the Ki stood at 0.00056 µM. The IC50 in the test with pERK in MKN1 cells (MKN-1) turned out to be 0.107 µM.
For `Cc1nnc(N[C@H](C)c2cc(N)cc(C(F)(F)F)c2)c2cc(O[C@H]3CCOC3)ccc12` [Example 15-1, N—((R)-1-(3-amino-5-(trifluoromethyl)phenyl)ethyl)-4-methyl-7-(((S)-tetrahydrofuran-3-yl)oxy)phthalazin-1-amine], in test [1] (setting [2]), the Ki came to 0.00337 µM. In addition, in the test on pERK in MKN1 cells (setting [3]), the IC50 stood at 0.028 µM.
On the same counts, the results for `Cc1nnc(N[C@H](C)c2cc(F)cc(C#N)c2)c2cc(N3CCOCC3)ccc12` [Example 10-52, (R)-3-fluoro-5-(1-((4-methyl-7-morpholinophthalazin-1-yl)amino)ethyl)benzonitrile] are 0.0445 µM and 0.286 µM.
As to `Cc1c([C@@H](C)Nc2nnc(C)c3ccc(N4CC[C@@H](N(C)C)C4)cc23)cccc1C(F)(F)F` [Example 10-26, 7-((R)-3-(dimethylamino)pyrrolidin-1-yl)-4-methyl-N-((R)-1-(2-methyl-3-(trifluoromethyl)phenyl)ethyl)phthalazin-1-amine hydrochloride salt], the Ki in test [1] (setting [4]) stood at 0.00047 µM. For the same compound, the IC50 with pERK in MKN1 cells (MKN-1) worked out at 0.164 µM.
As to `Cc1c(C#N)cccc1[C@@H](C)Nc1nnc(C)c2cnc(N3CC4(CCN(CC(F)(F)F)C4)C3)cc12` [Example 12-78], in test [1] (setting [2]), the Ki was 0.00266 µM. Besides, the IC50 with pERK in MKN1 cells (setting [3]) was 0.094 µM.
On the same counts, the results for `Cc1c([C@@H](C)Nc2nncc3ccc(O[C@H]4CC[C@H](N(C)C)C4)cc23)cccc1C(F)(F)F` [Example 2-11, 7-(((trans)-3-(dimethylamino)cyclopentyl)oxy)-N-((R)-1-(2-methyl-3-(trifluoromethyl)phenyl)ethyl)phthalazin-1-amine] are 0.00283 µM and 0.243 µM.
On the same counts, the results for `Cc1c([C@@H](C)Nc2nnc(C)c3ccc(N4CC(O)C4)cc23)cccc1C(F)(F)F` [Example 10-48, (R)-1-(1-methyl-4-((1-(2-methyl-3-(trifluoromethyl)phenyl)ethyl)amino)phthalazin-6-yl)azetidin-3-ol] are 0.00135 µM and 0.075 µM.
On the same counts, the results for `Cc1nnc(N[C@H](C)c2cccc(C#N)c2)c2cc(N3CCOCC3)ccc12` [Example 6-15, (R)-3-(1-((4-methyl-7-morpholinophthalazin-1-yl)amino)ethyl)benzonitrile] are 0.0126 µM and 0.172 µM.
As to `Cc1c(C#N)cccc1[C@@H](C)Nc1nnc(C)c2cnc(N3CCC(C)(N(C)C)CC3)cc12` [Example 12-46], the Ki in test [1] (setting [2]) amounted to 0.00092 µM. Also, in the test with pERK in MKN1 cells (setting [3]), the concentration for half-maximal inhibition (IC50) was determined as 0.037 µM.
On the same counts, the results for `Cc1nnc(N[C@H](C)c2cc(N)cc(C(F)(F)F)n2)c2cc(N3CC(C)(O)C3)ccc12` [Example 16-10, (R)-1-(4-((1-(4-amino-6-(trifluoromethyl)pyridin-2-yl)ethyl)amino)-1-methylphthalazin-6-yl)-3-methylazetidin-3-ol] are 0.081 µM and 0.919 µM.
On to `Cc1c(C#N)cccc1[C@@H](C)Nc1nnc(C)c2ccc(N3CC(N(C)C)C3)cc12` [Example 10-75, (R)-3-(1-((7-(3-(dimethylamino)azetidin-1-yl)-4-methylphthalazin-1-yl)amino)ethyl)-2-methylbenzonitrile Hydrochloride salt], for which the Ki in test [1] (setting [4]) amounted to 0.00651 µM. Besides, the IC50 with pERK in MKN1 cells (MKN-1) was 0.056 µM.
Regarding `CNCc1ccccc1-c1ccc([C@@H](C)Nc2nnc(C)c3cnc(N4CCOCC4)cc23)s1` [Example 6-2, (R)-4-methyl-N-(1-(5-(2-((methylamino)methyl)phenyl)thiophen-2-yl)ethyl)-7-morpholinopyrido[3,4-d]pyridazin-1-amine], the Ki in test [1] (setting [2]) came out at 0.00135 µM. Moreover, the IC50 in the test on pERK in MKN1 cells (setting [3]) was 0.1 µM.
In the case of `CNCc1ccccc1-c1ccc([C@@H](C)Nc2nnc(C)c3ccc(C)cc23)s1` [Example 8-1, (R)-4,7-di methyl-N-(1-(5-(2-((methylamino)methyl)phenyl)thiophen-2-yl)ethyl)phthalazin-1-amine], in test [1] (setting [2]), the Ki is 0.00138 µM. In addition, in the test with pERK in MKN1 cells (setting [3]), the IC50 came out at 0.164 µM.
In the case of `Cc1c([C@@H](C)Nc2nnc(C)c3ccc(N4CCC5(CCN(C)C5)CC4)cc23)cccc1C(F)(F)F` [Example 10-37, (R)-4-methyl-N-(1-(2-methyl-3-(trifluoromethyl)phenyl)ethyl)-7-(2-methyl-2,8-diazaspiro[4.5]decan-8-yl)phthalazin-1-amine hydrochloride salt], in test [1] (setting [4]), the Ki is 0.00024 µM. This compound also returned an IC50 with pERK in MKN1 cells (MKN-1) of 0.055 µM.
For `Cc1c(C#N)cccc1[C@@H](C)Nc1nnc(C)c2c(F)cc(N3CCN4COCC[C@@H]4C3)cc12` [Example 21-9, 3-((R)-1-((5-fluoro-7-((R)-hexahydro-2H,6H-pyrazino[1,2-c][1,3]oxazin-2-yl)-4-methylphthalazin-1-yl)amino)ethyl)-2-methylbenzonitrile], the Ki in test [1] (setting [2]) was 0.0021 µM. Besides, the IC50 in the test with pERK in MKN1 cells (setting [3]) came to 0.054 µM.
On the same counts, the results for `Cc1nnc(N[C@H](C)c2cccc(C(F)(F)F)c2F)c2cc(N3CCOCC3)ccc12` [Example 10-77, (R)-N-(1-(2-fluoro-3-(trifluoromethyl)phenyl)ethyl)-4-methyl-7-morpholinophthalazin-1-amine] are 0.00075 µM and 0.102 µM.
On the same counts, the results for `CCc1ccc2c(C)nnc(N[C@H](C)c3ccc(-c4ccccc4CNC)s3)c2c1` [8-2, (R)-7-ethyl-4-methyl-N-(1-(5-(2-((methylamino)methyl)phenyl)thiophen-2-yl)ethyl)phthalazin-1-amine] are 0.00374 µM and 0.605 µM.
On the same counts, the results for `Cc1c([C@@H](C)Nc2nnc(C)c3cnc(N4CC5(COC5)C4)cc23)cccc1C(F)(F)F` [Example 12-3] are 0.00074 µM and 0.03 µM.
Regarding `Cc1c([C@@H](C)Nc2nnc(C)c3ccc(N4CCN5C(=O)CC[C@@H]5C4)cc23)cccc1C(F)(F)F` [Example 10-12, (R)-2-(1-methyl-4-(((R)-1-(2-methyl-3-(trifluoromethyl)phenyl)ethyl)amino)phthalazin-6-yl)hexahydropyrrolo[1,2-a]pyrazin-6(2H)-one], in test [1] (setting [2]), the inhibitory constant (Ki) was 0.0004 µM. In addition, the IC50 with pERK in MKN1 cells (setting [3]) came out at 0.029 µM.
On the same counts, the results for `Cc1c(C#N)cccc1[C@@H](C)Nc1nnc(C)c2cnc(N3CC(C)(N(C)C)C3)cc12` [Example 12-43] are 0.00338 µM and 0.044 µM.
On the same counts, the results for `Cc1c([C@@H](C)Nc2nnc(C)c3cnc(N4CC5(CCNC5=O)C4)cc23)cccc1C(F)(F)F` [Example 12-32] are 0.00097 µM and 0.018 µM.
On the same counts, the results for `Cc1c([C@@H](C)Nc2nncc3ccc(N4CCn5cncc5C4)cc23)cccc1C(F)(F)F` [Example 1-48, (R)-7-(5,6-dihydroimidazo[1,5-a]pyrazin-7(8H)-yl)-N-(1-(2-methyl-3-(trifluoromethyl)phenyl)ethyl)phthalazin-1-amine] are 0.00056 µM and 0.364 µM.
Regarding `Cc1c([C@@H](C)Nc2nnc(C)c3ccc(N4C[C@H]5CC[C@@H]4CN5C)cc23)cccc1C(F)(F)F` [Example 10-32, 4-methyl-N-((R)-1-(2-methyl-3-(trifluoromethyl)phenyl)ethyl)-7-((1R,4R)-5-methyl-2,5-diazabicyclo[2.2.2]octan-2-yl)phthalazin-1-amine], in test [1] (setting [2]), the inhibition constant Ki came out at 0.0002 µM. Further, the IC50 in the test on pERK in MKN1 cells (setting [3]) was 0.028 µM.
On the same counts, the results for `Cc1c(C#N)cccc1[C@@H](C)Nc1nnc(C)c2cnc(N3CC(N(C)C)C3)cc12` [Example 12-54] are 0.00537 µM and 0.045 µM.

As a reminder, the Ki is a measure of affinity in units of concentration, obtained from inhibition or displacement. One may read the IC50 as the midpoint of a concentration-inhibition curve.
